# Measured values as given in patent publication US7070807B2, “Branched histidine copolymers and methods for using same” (priority 1999, dated 2006).
# Ends that are not written are not given here.
# How the values were obtained:
# CHO cells = assay: In vitro transfection with polymer:liposome:PCI-Luc complexes, luciferase activity; type: cell-based, Chinese hamster
# Experimental: (§1) 4.5×10^4 cells (MDA-MB-435, NIH3T3 or CHO) were initially plated into 24 well dishes. After 48 hours, when the cells were 60 and 80% confluent, cells were transfected with a plasmid encoding luciferase (PCI-Luc). In transfection experiments, the copolymer was initially incubated with PCI-Luc for 30 minutes in OptiM. The amount of copolymer which varied from 0.25 nmole to 15 nmole was mixed with the plasmid or oligonucleotide. The concentration of DNA varied from 0.25 μg to 0.75 μg. No visible aggregation of the polymer with the plasmid DNA was apparent at these concentrations. Cationic liposomes were then added, gently mixed, and then allowed to stand for an additional 30 minutes. The polymer:liposome:DNA complex was then diluted with either OptiM or OptiM+10% serum. In experiments utilizing lysomotropic agents, either chloroquine (Sigma, St. Louis, Mo.) or bafilomycin Al (Sigma) was added to the media at concentrations of 10 ng/ml and 25 μM, respectively. Four hours after transfection, the complexes were removed and DMEM with 10% serum was added. Forty-eight hours later, luciferase levels were measured with the Turner 20/20 luminometer. Duplicates were done for each concentration and each experiment was performed twice.
# NIH-3T3 cells = assay: as above; type: cell-based
# Experimental: as §1
# [1] = Effect of adding transition metal on transfection efficiency of polymer:liposome:DNA complexes; type: cell-based; conditions: Zn2+ 0 to 2.00 μg/ml added to H-K2b, H-K3b or H-K4b:liposome:DNA
# Experimental: To determine the effect of adding transition metals on the transfection efficiency of a polymer:DNA complex, 0.25 μg H-K2b, 0.125 μg H-K3b, or 0.125 μg H-K4b were initially mixed with 0.75 μg DNA. After 30 minutes, cationic liposomes were added for 30 minutes. Zn^2+ was then added in an amount ranging from 0 to 2.00 μg/ml. As a control, various amounts of zinc were added to the liposome:DNA complex.
# MDA-MB-435 cells [2] = assay: In vitro transfection with polymer:liposome:PCI-Luc complexes, luciferase activity; type: cell-based, human; conditions: for transfection efficiency compared to H-K (19-mer): polymer:liposome:PCI-Luc; for transfection efficiency of the liposome: PCI-Luc complex, polymer vs no polymer (length comparison): 7.5 nmole polymer; for increase of transfection efficiency of branched polymer compared to the linear H-K polymer: with liposomes and 0.75 μg DNA, optimal dose; for transfection efficiency / uptake of liposomes (sequence order comparison): polymer mixed with DNA then liposomes, cell line not stated
# Experimental: as §1
# tumor = assay: Intratumoral injection of branched polymer carrier of PCI-Luc, gene expression; type: in vivo; conditions: injected intratumorally
# From the text: FIG. 20. Comparison of the in vitro and in vivo transfection efficiencies of branched transport polymers having different lysine content. In contrast to in vitro experiments, local injection of a branched polymer with a lower lysine content enhanced transfection. A) In vitro comparison of HH-K4b and HHH-K4b as gene delivery carriers of PCI-Luc.
# In place of lysine or other cationic amino acids (e.g., ornithine and arginine), other amino acids may be substituted. The preferred amino acids to be substituted for lysines are hydrophilic amino acids such as asparagine or serine.
# MDA-MB-435 cells [3] = assay: In vitro transfection with polymer:DNA complex in the absence of liposomes, luciferase activity; type: cell-based, human; conditions: no liposomes
# Experimental: as §1
# Effect on transfection efficiency of a polymer:DNA complex: To determine the effect of branching on the transfection efficiency of a polymer:DNA complex, 7.5 nmol of H-K or 0.375 nmol of HH-K4b was mixed with PCI-Luc, and luciferase activity was measured as described above.
# HH-K4b and HHH-K4b, respectively, have a histidine to lysine ratio of 1.5 and 2.4, respectively. […] In vitro transfection experiments were performed on MDA-MB-435 cells as described previously in 6.2 and 6.4.3. For the formation of the complex, 3.75 μg of polymer was mixed with 0.75 μg of PCI-Luc, and experiments were performed in a 24-well plates.
# MDA-MB-435 cells [4] = assay: Uptake of polymer:fluorescein-labeled oligonucleotide complex, CytoFluor fluorescence; type: cell-based, human; conditions: no liposomes; 0.75 μg 32-mer; 4 hour incubation, measured 24 hours later
# Experimental: Effect on uptake of a polymer:oligonucleotide complex: In a second experiment, the same amount of HK or HHK4b was mixed with 0.75 μg of a 5′-end fluorescein-labeled randomly generated oligonucleotide(32-mer) for 30 minutes. This complex was added to the MDA-MB-435 cells for 4 hour incubation. Twenty-four hours later, the cells were then washed, and measured by CytoFluor fluorescence Measurement System. (Millipore, Bedford, Miss.).
# [5] = tested on: MDA-MB-435 tumors in nude mice; assay: In vivo tumor growth after intratumoral injection of HH-K4b:oligonucleotide complexes (DNAzyme against VEGF receptor mRNA); conditions: SEM in parentheses
# Experimental: In vivo delivery of pharmaceutical agents. […] In this example, the receptor of VEGF mRNA with a DNA oligonucleotide that has enzymatic activity (also called DNAzyme) (36) was targeted. The VEGF receptor is essential for tumor angiogenesis and consequently tumor growth. After breast cancer cells (MDA-MB-435 cells) were injected into nude mice and the tumors grew to a visible size, the tumor was injected with the therapeutic polymer-DNA complex. The tumor was injected every 5 days for a total of 5 injections. There were 4 treatment groups: 1) untreated, 2) HH-K4B carrier alone, 3) HH-K4b+DNAzyme, and 4) HH-K4b+antisense oligonucleotides. To prepare the complex for injection, 45 μg of the HH-K4b polymer diluted in 150 μl of water was mixed with 24 μg of oligonucleotide, also diluted in 150 μl of water. After formation of the complex for 2 hours, 25 μl of the treatment complex was injected into each tumor. The therapeutic oligonucleotide sequence is 5′-TGCTCTCCA-GGCTAGCTACAACGA-CCTGCACCT-3′ (SEQ ID NO:18) whereas the control antisense oligonucleotide sequence is 5′-TGCTCTCCA-GGCTATGTACAACGA-CCTGCACCT-3′. (SEQ ID NO:19) The only difference between the therapeutic DNAzyme sequence and the antisense sequences is that the nucleotides responsible for cleaving the mRNA have been altered with the antisense DNA.
# [6] = tested on: mice with 66.1 cell lung metastases; assay: Intravenous delivery of polymer:liposome:PCI-Luc, lung luciferase activity; type: in vivo; conditions: complex with DOTAP/cholesterol liposomes, tumor laden mice, lungs six hours later
# Experimental: FIG. 19. Branched transport polymer in combination with liposomes enhanced transfection efficiency when administered intravenously. Two weeks prior to injection of complex, 1.0×10^5 of 66.1 cells (a murine breast cancer cell line) were injected into mice to establish lung metastases. 6 μg of HH-K4b (volume-60 μl) was mixed with 30 μg of PCI-Luc (volume-60 μl). After 40 min, 18 μg of liposomes (DOTAP:cholesterol, volume-60 μl) was added and gently mixed for another 30 min. Total volume of the polymer: liposome: DNA solution is 180 μl. 0.28 μl of 1 M Hepes was mixed with H-K or HH-K4b solution, respectively, to neutralize to approximately pH-7.0. Liposome in complex with PCI-Luc complexes were prepared similarly. 150 μl of the complex solution was injected via the tail vein into the mice. Six hours later, the lungs were homogenized and the luciferase activity was measured in each group.
# The liposomes were composed of DOTAP and cholesterol in a 1 to 1 molar ratio.
# endothelial cells (BAEC) = assay: In vitro transfection with polymer:liposome:DNA complexes, luciferase activity; type: cell-based, bovine
# Experimental: To further investigate the extent to which histidine order could affect transfection efficiency, four polymer solutions containing a different linear histidine copolymer (H-K (19-mer) (SEQ ID NO:3), HHH-K (20-mer) (SEQ ID NO:6), HH-K (20-mer) (SEQ ID NO:5), or K-HK (21-mer) (SEQ ID NO:9)) were mixed in amounts ranging from 0.125 μl to 2.5 μl with 0.75 μg DNA. The concentration of each of the polymer solutions was […]. After 30 minutes, 1.5 μg of liposomes were added. After adding the delivery compositions to endothelial cells (BAEC) for 4 hours, the cells were washed, and luciferase activity measured 48 hours later (FIG. 14).
compound,measurement,setting,value
CO/C1=C\C(C)=C\[C@@H](C)[C@@H](O)[C@@H](C)C/C(C)=C/C=C/[C@H](OC)[C@@H]([C@@H](C)[C@@H](O)[C@H](C)[C@@]2(O)C[C@@H](O)[C@H](C)[C@@H](C(C)C)O2)OC1=O [bafilomycin A1],effect of lysosomotropic agent on transfection of the H-K: liposome: PCI-Luc triplex,CHO cells; CHO cells,significantly increased
same,increase of transfection efficiency of the H-K: liposome: PCI-Luc triplex by lysosomotropic agent,"CHO cells; CHO cells, 10 ng/ml bafilomycin added with transfection agents",5 fold
same,effect of lysosomotropic agent on transfection efficiency of the liposome: PCI-Luc complex,CHO cells; absence of the histidine copolymer,did not enhance the transfection efficiency
same,effect of lysosomotropic agent on transfection of the H-K: liposome: PCI-Luc triplex,NIH-3T3 cells,significantly increased
CCN(CC)CCCC(C)Nc1ccnc2cc(Cl)ccc12 (stereo not shown) [chloroquine],effect of lysosomotropic agent on transfection of the H-K: liposome: PCI-Luc triplex,CHO cells; CHO cells,significantly increased
same,effect of lysosomotropic agent on transfection of the H-K: liposome: PCI-Luc triplex,NIH-3T3 cells,significantly increased
[Zn+2] [zinc],effect of added zinc on transfection efficiency of polymer:liposome:DNA complexes,[1],can enhance transfection efficiency
"H-R (19-mer): arginine-histidine copolymer, SEQ ID NO: 13 (RHRHRHRHRGRHRHRHRHR)",transfection efficiency compared to H-K (19-mer),MDA-MB-435 cells [2],significantly better than H-K
"KHKHKHKHKGKHKHKHKHK-NH2 [H-K (19-mer), [K-H-K-H-K-H-K-H-K-G-K-H-K-H-K-H-K-H-K]]",morphologic evidence of cellular toxicity due to the polymer,MDA-MB-435 cells [2]; even at concentrations of 0.5 mM,No morphologic evidence of cellular toxicity
"[K-H-H-H-K-H-H-H-K-H-H-H-K-H-H-H-K]4K3 (KHHHKHHHKHHHKHHHK; also: four copies on branched lysine core (K3)) [HHH-K4b, branched polymer on lysine core]",efficiency as carrier of nucleic acids compared to DOTAP liposomes or HH-K4b carrier,tumor,much more efficient as a carrier of nucleic acids
[KHKHHKHHKHHKHHKHHKHK]4K3 [HH-K4b],in vitro transfection compared to HHH-K4b,"MDA-MB-435 cells [3]; 3.75 μg polymer, 0.75 μg PCI-Luc",significantly more effective transfection agent in vitro
same,transfection efficiency of polymer:DNA complex compared to linear H-K polymer,MDA-MB-435 cells [3]; 0.375 nmol HH-K4b vs 7.5 nmol H-K,better
same,"luciferase expression as sole carrier of DNA compared to HH-K3b, HH-K2b and H-K4b",MDA-MB-435 cells [3]; data not shown,better at enhancing luciferase expression
same,uptake of oligonucleotides compared to linear HK polymer: oligonucleotides complex,MDA-MB-435 cells [4],significantly enhanced uptake
same,"tumor volume, 1st Injection",[5]; measured before 1st injection (baseline),9.5 (1.1)
same,"tumor volume, 2nd Injection","[5]; measured before 2nd injection, intratumoral every 5 days",63.7 (10.7)
same,"tumor volume, 3rd Injection","[5]; measured before 3rd injection, intratumoral every 5 days",134 (30)
same,"tumor volume, 4th Injection","[5]; measured before 4th injection, intratumoral every 5 days",236 (55)
same,"tumor volume, 5th Injection","[5]; measured before 5th injection, intratumoral every 5 days",429 (94)
same,gene (luciferase) expression compared to liposomes only,[6],7 fold
[K-H-K-H-K-H-K-G-K-H-K-H-K] (KHKHKHKGKHKHK) [H-K (13 mer)],"transfection efficiency of the liposome: PCI-Luc complex, polymer vs no polymer (length comparison)",MDA-MB-435 cells [2],increased the transfection efficiency
[KHKHKHKHKGKHKHKHKHKGKHKHKHKHK] (KHKHKHKHKGKHKHKHKHKGKHKHKHKHK) [H-K (29 mer)],"transfection efficiency of the liposome: PCI-Luc complex, polymer vs no polymer (length comparison)",MDA-MB-435 cells [2],increased the transfection efficiency
same,transfection efficiency compared to the 13 mer,MDA-MB-435 cells [2]; 7.5 nmole polymer with liposome and DNA,increased transfection efficiency more than the 13 mer
[K-H-K-H-K-H-K-H-K-G-K-H-K-H-K-H-K-H-K]2 K [H-K2b],increase of transfection efficiency of branched polymer compared to the linear H-K polymer,MDA-MB-435 cells [2]; absence of serum,approximately 10 fold
same,transport of DNA into cells (luciferase) relative to PEI,"MDA-MB-435 cells [2]; presence or absence of serum, H-K2b 0.25 μg + DNA 0.75 μg + liposomes 1.5 μg vs PEI 0.5 μg",more than 10 fold
[K-H-K-H-K-H-K-H-K-G-K-H-K-H-K-H-K-H-K]3 K2 [H-K3b],increase of transfection efficiency of branched polymer compared to the linear H-K polymer,MDA-MB-435 cells [2]; absence of serum,approximately 10 fold
[K-H-K-H-K-H-K-H-K-G-K-H-K-H-K-H-K-H-K]4 K3 [H-K4b],increase of transfection efficiency of branched polymer compared to the linear H-K polymer,MDA-MB-435 cells [2]; absence of serum,approximately 10 fold
[KKHHHKHHHKKHHHKHHHKK] (KKHHHKHHHKKHHHKHHHKK) [HHH-K],"transfection of DNA in combination with liposomes, rank among four polymers",endothelial cells (BAEC); highest concentration of polymer used,most effective of the four
same,"transfection of DNA in combination with liposomes, rank among four polymers",endothelial cells (BAEC); lower concentrations of polymer,not as effective as the other three polymers tested
"[K-K-K-K-K-K-K-K-K-G-K-K-K-K-K-K-K-K-K] (KKKKKKKKKGKKKKKKKKK) [poly-L-lysine, reference compound]",effect of serum on transfection efficiency of polymer:liposome carrier,MDA-MB-435 cells [2]; presence vs absence of 10% serum,markedly decreased in the presence of serum
[K-S-K-S-K-S-K-S-K-G-K-S-K-S-K-S-K-S-K] (KSKSKSKSKGKSKSKSKSK) [S-K (19-mer)],transfection efficiency compared to no polymer,"MDA-MB-435 cells [2]; absence of serum, with liposome: PCI-Luc",enhanced the transfection efficiency slightly more than when no polymer was added
same,transfection efficiency compared to H-K (19-mer),MDA-MB-435 cells [2],significantly less effective
[YGRKKRRQRRRGKHKHKHKHKHKHKHKHK] (YGRKKRRQRRRGKHKHKHKHKHKHKHKHK) [Y-HK],transfection efficiency / uptake of liposomes (sequence order comparison),MDA-MB-435 cells [2]; presence or absence of serum,accelerated useful transfection efficiency
[YGRKKRRQRRRHHKHHKHHKHHKHHK] (YGRKKRRQRRRHHKHHKHHKHHKHHK) [Y-HH],transfection efficiency / uptake of liposomes (sequence order comparison),MDA-MB-435 cells [2]; presence or absence of serum,significantly enhanced the uptake of liposomes
